{"source": "patent US9408393B2", "about": "“Bismuth-thiols as antiseptics for agricultural, industrial and other uses” (Microbion Corporation, priority 2010, dated 2016)", "key": {"Pseudomonas aeruginosa": {"tested_on": "Pseudomonas aeruginosa", "test": "Single-point BisEDT-antibiotic combination FICI", "assay_type": "cell-based", "settings": "PA 1380"}, "Klebsiella pneumoniae": {"tested_on": "Klebsiella pneumoniae", "test": "Single-point BisEDT-antibiotic combination FICI", "assay_type": "cell-based", "settings": "KP 1231"}, "P. aeruginosa": {"tested_on": "P. aeruginosa", "test": "Checkerboard broth microdilution MIC and FICI", "assay_type": "cell-based, Pseudomonas aeruginosa", "settings": "compound alone; for MIC: Pseudomonas aeruginosa, read-out: MIC (μg/mL) Alone", "method": "The effects of combinations of microparticulate Bis-EDT and four Bis-EDT analogs prepared as described above, and other agents against representative strains of several Gram-negative pathogenic bacteria were tested. A modification of a common laboratory method was used to determine synergism (FICI≦0.5), enhancement (0.5<FICI≦1.0), antagonism (FICI>4.0) and indifference (1.0<FICI≦4.0) used fractional inhibitory concentrations (FICs) and FIC indices (FICI) (Eliopoulos G and R Moellering. 1991. Antimicrobial combinations. In Antibiotics in Laboratory Medicine, Third Edition, edited by V Lorian. Williams and Wilkins, Baltimore, Md., pp. 432-492; Odds, 2003 J. Antimicrob. Chemother. 52(1):1). The checkerboard technique was used to determine FIC indices and was employed in this study.\nStock solutions of all test articles were prepared at 40× the final target concentration in the appropriate solvent. […] The final drug concentrations in the FIC assay plates were set to bracket the MIC value of each agent for each test organism, unless the strain was totally resistant to the test agent. […] The test organisms were originally received from clinical sources, or from the American Type Culture Collection. Upon receipt, the isolates were streaked onto Tryptic Soy Agar II (TSA). Colonies were harvested from these plates and a cell suspension was prepared in an appropriate broth growth medium containing cryoprotectant. Aliquots were then frozen at −80° C. The frozen seeds of the organisms to be tested in a given assay were thawed, streaked for isolation onto TSA plates, and incubated at 35° C. All organisms were tested in Mueller Hinton II Broth (Becton Dickinson, Lot No. 9044411). The broth was prepared at 1.05× normal weight/volume to offset the 5% volume of the drugs in the final test plates.\nMinimal Inhibitory Concentration (MIC) values were previously determined using the broth microdilution method for aerobic bacteria (Clinical and Laboratory Standards Institute (CLSI). Methods for Dilution Antimicrobial Susceptibility Tests for Bacteria That Grow Aerobically; Approved Standard—Eighth Edition. CLSI document M07-A8 [ISBN 1-56238-689-1]. Clinical and Laboratory Standards Institute, 940 West Valley Road, Suite 1400, Wayne, Pa. 19087-1898 USA, 2009.).\nFIC values were determined using a broth microdilution method previously described (Sweeney et al., 2003 Antimicrob. Agents Chemother. 47(6):1902-1906). To prepare the test plates, automated liquid handlers (Multidrop 384, Labsystems, Helsinki, Finland; Biomek 2000 and Multimek 96, Beckman Coulter, Fullerton Calif.) were used to conduct serial dilutions and liquid transfers.\nThe appropriate wells of standard 96-well microdilution plates (Falcon 3918) were filled with 150 μL of the appropriate solvent in columns 2-12 using the Multidrop 384. Three hundred microliters of each secondary test drug was added to each well in Column 1 of the plates. These plates were used to prepare the drug “mother plates” which provided the serial drug dilutions for the drug combination plates. The Biomek 2000 was used to transfer 150 μL of each secondary drug solution (40×) from the wells in Column 1 of the mother plate and to make eleven 2-fold serial dilutions. Mother plates of Bis-EDT (and analogs) were serial diluted top to bottom by hand, using a multichannel pipette. Two mother plates, one for each secondary drug and one for Bis-EDT (or analogs), were combined to form a “checkerboard” pattern by transfer of equal volumes (using a multi-channel pipette) to the drug combination plate. Row H and Column 12 each contained serial dilutions of one of the agents alone for determination of the MIC.\nThe “daughter plates” were loaded with 180 μL of test medium using the Multidrop 384. Then, the Multimek 96 was used to transfer 10 μL of drug solution from each well of the drug combination mother plate to each corresponding well of the daughter plate in a single step."}, "[1]": {"tested_on": "MRSA clinical isolates biofilm", "test": "Biofilm-prevention concentration (BPC) in BHIG/X medium with subMIC BisEDT", "assay_type": "cell-based, Staphylococcus aureus", "settings": "12 MRSA clinical isolates, mean ± SD", "method": "(§1) Broth dilution antimicrobial susceptibility studies were performed against 12 MRSA strains using several antibiotics combined with subMIC levels of BisEDT (Table 18). Both the biofilm-prevention concentration (BPC) and the minimum inhibitory concentration (MIC) were determined in a special biofilm culture medium (BHIG/X). […] These strains were already sensitive to vancomycin, but were made considerably moreso in the presence of subMIC BisEDT."}, "[2]": {"tested_on": "lawn of MRSA (Methicillin-resistant S. aureus)", "test": "Antibiotic-soaked discs on bacterial lawn with and without BisEDT", "assay_type": "cell-based, Staphylococcus aureus", "settings": "antibiotic discs combined with BisEDT 0.05 μg/ml", "method": "FIGS. 4A and 4B show the subinhibitory BisEDT reversing antibiotic-resistance to several antibiotics. Effects of antibiotics with and without BisEDT (0.05 μg/ml) on a lawn of MRSA (Methicillin-resistant S. aureus) is shown. […] [GM=gentamicin, CZ=cefazolin, FEP=cefepime, IPM=imipenim, SAM=ampicillin/sulbactam, LVX=levofloxacin."}, "MRSA clinical isolates [3]": {"tested_on": "MRSA clinical isolates", "settings": "cited from earlier work"}, "Escherichia coli": {"tested_on": "Escherichia coli", "test": "Single-point BisEDT-antibiotic combination FICI", "assay_type": "cell-based"}, "Bukholderia multivorans": {"tested_on": "Bukholderia multivorans", "test": "Single-point BisEDT-antibiotic combination FICI", "assay_type": "cell-based", "settings": "Bmult 5665"}, "Burkholderia cepacia": {"tested_on": "Burkholderia cepacia", "test": "Single-point BisEDT-antibiotic combination FICI", "assay_type": "cell-based", "settings": "Bcep 1756"}, "Acinetobacter baumanii": {"tested_on": "Acinetobacter baumanii", "test": "Single-point BisEDT-antibiotic combination FICI", "assay_type": "cell-based", "settings": "Abau 2594"}, "MRSA clinical isolates [4]": {"tested_on": "MRSA clinical isolates", "test": "Broth dilution MIC in BHIG/X medium with subMIC BisEDT", "assay_type": "cell-based, Staphylococcus aureus", "settings": "for MIC: Staphylococcus aureus, MRSA, 12 MRSA clinical isolates, BHIG/X, mean ± SD, read-out: MIC", "method": "as §1\nIn this particular study, the data indicated synergy between BisEDT and cefepime (FIC<0.5), with many of the isolates at the breakpoint for sensitivity."}}, "note": "Where two headings read alike, the source gives them in different places."}
{"smiles": "CO/N=C(\\C(=O)N[C@@H]1C(=O)N2C(C(=O)[O-])=C(C[N+]3(C)CCCC3)CS[C@H]12)c1csc(N)n1", "note": "[Cefepime]", "values": [{"measurement": "FICI, single-point BisEDT-antibiotic combination", "setting": "Pseudomonas aeruginosa", "value": 0.62}, {"measurement": "FICI, single-point BisEDT-antibiotic combination", "setting": "Klebsiella pneumoniae", "value": 1.11}, {"measurement": "MIC (μg/mL) Alone", "setting": "P. aeruginosa; P. aeruginosa 103", "value": 1, "unit": "µg/mL"}, {"measurement": "MIC (μg/mL) Alone", "setting": "P. aeruginosa; P. aeruginosa 1479", "value": 8, "unit": "µg/mL"}, {"measurement": "MIC (μg/mL) Alone", "setting": "P. aeruginosa; P. aeruginosa 2566", "value": 16, "unit": "µg/mL"}, {"measurement": "MIC", "setting": "P. aeruginosa; P. aeruginosa 103", "value": 2, "unit": "µg/mL"}, {"measurement": "MIC", "setting": "P. aeruginosa; P. aeruginosa 1381", "value": 32, "unit": "µg/mL"}, {"measurement": "MIC", "setting": "P. aeruginosa; P. aeruginosa 1384", "value": 2, "unit": "µg/mL"}, {"measurement": "MIC", "setting": "P. aeruginosa; P. aeruginosa 1474", "value": 2, "unit": "µg/mL"}, {"measurement": "MIC", "setting": "P. aeruginosa; P. aeruginosa 1479", "value": 4, "unit": "µg/mL"}, {"measurement": "MIC", "setting": "P. aeruginosa; P. aeruginosa 2566", "value": 8, "unit": "µg/mL"}, {"measurement": "MIC", "setting": "P. aeruginosa; P. aeruginosa 2568", "value": 2, "unit": "µg/mL"}, {"measurement": "BPC", "setting": "[1]; BisEDT 0 μg/mL", "value": "24 ± 37", "unit": "µg/mL"}, {"measurement": "BPC", "setting": "[1]; BisEDT 0.025 μg/mL", "value": "27 ± 28", "unit": "µg/mL"}, {"measurement": "BPC", "setting": "[1]; BisEDT 0.05 μg/mL", "value": "18 ± 16", "unit": "µg/mL"}, {"measurement": "BPC", "setting": "[1]; BisEDT 0.1 μg/mL", "value": "5.0 ± 7.3", "unit": "µg/mL"}, {"measurement": "Antibiotic action on MRSA lawn with subMIC BisEDT", "setting": "[2]", "value": "enhanced antibiotic action"}, {"measurement": "MIC Standards, R (resistance)", "setting": "MRSA clinical isolates [3]; Standard MIC breakpoint for resistance", "value": "≧32 μg/ml"}, {"measurement": "MIC Standards, S (antibiotic sensitivity)", "setting": "MRSA clinical isolates [3]; Standard MIC breakpoint for sensitivity", "value": "≦8 μg/ml"}, {"measurement": "FICI, single-point BisEDT-antibiotic combination", "setting": "Escherichia coli; EC 102", "value": 0.87}, {"measurement": "FICI, single-point BisEDT-antibiotic combination", "setting": "Escherichia coli; EC 2232", "value": 0.96}, {"measurement": "FICI, single-point BisEDT-antibiotic combination", "setting": "Bukholderia multivorans", "value": 0.96}, {"measurement": "FICI, single-point BisEDT-antibiotic combination", "setting": "Burkholderia cepacia", "value": 1.34}, {"measurement": "FICI, single-point BisEDT-antibiotic combination", "setting": "Acinetobacter baumanii", "value": 0.71}, {"measurement": "Isolates in which BisEDT significantly enhanced inhibitory activity of cefepime", "setting": "MRSA clinical isolates [4]; BisEDT at 0.1 μg/ml, 12 cefepime-resistant MRSA", "value": "11 of 12"}, {"measurement": "MIC", "setting": "MRSA clinical isolates [4]; BisEDT 0 μg/mL", "value": "45 ± 32", "unit": "µg/mL"}, {"measurement": "MIC", "setting": "MRSA clinical isolates [4]; BisEDT 0.025 μg/mL", "value": "32 ± 28", "unit": "µg/mL"}, {"measurement": "MIC", "setting": "MRSA clinical isolates [4]; BisEDT 0.05 μg/mL", "value": "37 ± 24", "unit": "µg/mL"}, {"measurement": "MIC", "setting": "MRSA clinical isolates [4]; BisEDT 0.1 μg/mL", "value": "9.3 ± 6.1", "unit": "µg/mL"}, {"measurement": "FIC, BisEDT and cefepime", "setting": "MRSA clinical isolates [4]; cefepime-resistant MRSA isolates", "value": "< 0.5"}]}
